Reference: paper PMC9343874, “Comparative Pharmacokinetics of Cinobufacini Capsule and Injection by UPLC-MS/MS” (Frontiers in Pharmacology, 2022)
Read-outs that look alike come from different tables or passages of the source.

How the values were obtained:
[1] = Pharmacokinetic study in rats after oral administration of cinobufacini capsule (UPLC-MS/MS of plasma); type: in vivo, rat; conditions: for detection in rat plasma: cinobufacini capsule groups
Experimental: (§1) Male Sprague–Dawley rats (weighing 200–220 g) of SPF grade were offered by Sippr/BK laboratory Animal, Corp., Ltd. (Shanghai, China) and fed in the Laboratory Animal Center of the Shanghai University of Traditional Chinese Medicine. All the rats were kept under environmentally controlled conditions with constant temperature (22–24°C) and humidity (60–65%). The animal experiment program in the present research was approved by the Animal Committee of the Shanghai University of Traditional Chinese Medicine (PZSHUTCM210618012).
(§2) An Agilent 1290 liquid chromatographic system includes a G4220A quaternary pump, a G1326C column incubator, a G4226A automatic sampler, and a G1330B degasser. The column temperature was set to 35°C. A measure of 5 µL of samples were separated in an Agilent SB-C18 column (2.1 mm ×50 mm, 1.8 μm) and eluted at 0.3 ml/min, followed by gradient elution with water (0.1% V/V formic acid) (A) and acetonitrile (B) (0–1 min, 20%–20% B; 1–3.5 min, 20%–80% B; 4–4.1 min, 80%-20% B; 4.1–6 min, 20% B). The total run time was 6 minutes.
(§3) An Agilent 1290 Infinity series UPLC system was combined with an Agilent 6460 series triple quadrupole mass spectrometer (Agilent Technologies, Santa Clara, CA, United States) to quantify all 13 analytes in an ESI-positive ionization mode. Quantitative analysis was performed in an MRM mode. The mass spectrum conditions were as follows: capillary voltage, 4000V; drying gas (N2), gas flow rate: 10 L/min; sprayer, 30 psi; gas temperature 350°C; The delta EMV (+) 200 V; collision gas (N2); dwell time, 25 ms. Agilent’s MassHunter Workstation software was used for data collection, peak area calculation, and quantitative analysis.
(§4) A measure of 50 µL of the plasma sample was mixed with 10 µL of the internal standard solution (345 ng/ml) in a 1.5-ml centrifuge tube and vortexed for 5 min. The samples were extracted by 500 µL of ethyl acetate for 5 min and centrifuged at 4°C for 10 min (18000 rpm). All the supernatants were collected into another 1.5-ml centrifuge tube, dried under a gentle stream of nitrogen at 37°C, and then added with 50 µL of 80% methanol for resolution. The resolution samples were centrifuged at 4°C for 10 min (18000 rpm), and 5 µL supernatant was extracted and injected for analysis.
(§5) Twenty-four male Sprague–Dawley rats (weigh 200–220 g) were divided into four groups with six rats in each group randomly, including three capsule groups at three different doses and one injection group. In the instructions for cinobufacini capsule and injection, the clinical dosage for adults is 2 g per 70 kg orally and 20 ml per 70 kg intravenously, converting to rat doses of 180 mg/kg and 1.8 ml/kg, respectively.
(§6) In the pre-experiments, we compared cinobufacini capsule of 180 mg/kg (one-time clinical dose) and 900 mg/kg (five times of clinical dose) and Cinobufacini injection of 1.8 ml/kg, but concentrations of some compounds in plasma were too low and difficult to be quantified. […] The experimental rats were led to fast the night and were free to get access to water for 12 h before the pharmacokinetic study. After administration, blood samples (approximately 150 μL) of rats were collected via retro-orbital sinus into heparinized centrifuge tubes at 0.05, 0.083, 0.25, 0.5, 0.75, 1, 2, 4, 6, 8, and 10 h. After centrifugation at 5,000 rpm for 10 min, the plasma was transferred to 1.5-ml polypropylene tubes and stored at −80°C until UPLC-MS/MS analysis.
(§7) GraphPad Prism software (version 8.0.2) was used to draw the mean plasma concentration–time curves of all analytes. The pharmacokinetic parameters were calculated by DAS 3.2.8 software. Meanwhile, the pharmacokinetic data on rats were presented as mean ± standard deviation (SD). Differences of pharmacokinetic parameters between groups were analyzed by the t-test using SPSS software (version 26.0). Differences were considered significant statistically when the p-values were <0.05 and very significant statistically when the p-values were <0.01.

[2] = Pharmacokinetic study in rats after intravenous administration of cinobufacini injection (UPLC-MS/MS of plasma); type: in vivo, rat; conditions: cinobufacini injection group, intravenous
Experimental: as §1, §2, §3, §4, §5, §6, §7

[3] = Stability of analytes in rat plasma QC samples under storage conditions; type: physicochemical; conditions: n = 6; for Stability during 24 h at 4°C, RE: post-treatment storage in autosampler; for −80°C for 30 days, RE / Three freeze–thaw cycles, RE: rat plasma; for −80°C for 30 days, RE: long-term; for Three freeze–thaw cycles, RE: −80°C to room temperature
Experimental: The stability of QC samples in six replicates at three concentrations (low, medium, and high levels) was analyzed under different storage conditions: the post-treatment stability was analyzed after storage in an autosampler (4°C) for 24 h. Freeze–thaw stability was investigated after three freeze–thaw cycles (−80°C to room temperature as one cycle). Long-term stability was assessed by analyzing QC samples kept at −80°C for 30 days. The concentrations of the analytes in the plasma samples and the QC samples were calculated by the calibration standard curve prepared each day. The stabilities of analytes were acceptable when the accuracy (RE, %) and precision (RSD, %) of all QC samples in all storage conditions were within ±15% compared to nominal concentrations.

[4] = set-up: method as in Huang et al., 2015; conditions: after administration of Shexiang Baoxin pill; ref Huang et al., 2015; cited from earlier work
[5] = set-up: method as in Wang et al., 2014; conditions: administration dose 1.11 mg/kg; ref Wang et al., 2014; cited from earlier work
[6] = high QC level (249.58–250.28 ng/ml)
[7] = medium QC level (49.92–50.06 ng/ml)

SMILES	detection in rat plasma [1]	concentration in plasma ([1]; present study)	detection in rat plasma [2]	Stability during 24 h at 4°C, RE [3, 6]	Stability during 24 h at 4°C, RE ([3]; low QC level (4.99–5.00 ng/ml))	Stability during 24 h at 4°C, RE [3, 7]	−80°C for 30 days, RE [3, 6]	−80°C for 30 days, RE ([3]; low QC level (4.99–5.00 ng/ml))	−80°C for 30 days, RE [3, 7]	Three freeze–thaw cycles, RE [3, 6]	Three freeze–thaw cycles, RE ([3]; low QC level (4.99–5.00 ng/ml))	Three freeze–thaw cycles, RE [3, 7]	concentration in plasma [4]	detection in plasma [4]	Cmax [5]
CC(=O)O[C@H]1C[C@]2(O)[C@@H]3CC[C@@H]4C[C@@H](O)CC[C@]4(C)[C@H]3CC[C@]2(C)[C@H]1c1ccc(=O)oc1 [BL, bufotalin]	could not be detected	too low to calculate the pharmacokinetics parameters accurately	could not be detected	5.7%	11.4%	5.0%	6.0%	2.3%	2.1%	7.1%	3.4%	3.1%	lower than 4.4 ng/ml	–	–
CC(=O)O[C@H]1[C@H]2O[C@]23[C@@H]2CC[C@@H]4C[C@@H](O)CC[C@]4(C)[C@H]2CC[C@]3(C)[C@H]1c1ccc(=O)oc1 [CBG, cinobufagin]	could not be detected	–	could not be detected	0.6%	4.8%	−3.2%	2.3%	3.7%	−1.0%	3.4%	4.8%	0.0%	–	not detected	4.49 ng/mL
CC(=O)O[C@H]1[C@H]2O[C@]23[C@@H]2CC[C@]4(O)C[C@@H](O)CC[C@]4(C)[C@H]2CC[C@]3(C)[C@H]1c1ccc(=O)oc1 [CBT, cinobufotalin]	could not be detected	–	could not be detected	4.8%	9.8%	7.7%	−8.7%	−0.3%	4.1%	12.0%	4.3%	13.2%	–	–	–
C[C@]12CC[C@H](O)C[C@H]1CC[C@@H]1[C@@H]2CC[C@]2(C)[C@@H](c3ccc(=O)oc3)C[C@H]3O[C@]132 [RBG, resibufogenin]	could not be detected	–	could not be detected	−3.3%	−6.4%	3.5%	−2.8%	−1.3%	2.3%	−1.9%	−0.3%	3.3%	–	–	–
